In ChEMBL document CHEMBL4483862, “Open-source discovery of chemical leads for next-generation chemoprotective antimalarials” (2018):

Tested on: Plasmodium berghei
Assay: Luciferase/luciferin-expressing antifolate-resistant parasites were used to infect a culture of HepG2 cells that were pre-incubated with compounds. Infected hepatocytes emit light due to the luciferase reaction. Assay results are presented as the percent inhibition of light emission compared to control. […]
Type: functional
Settings: sporozoite; for IC90: read-out: LUCIFERASE INFECTION ASSAY - IC90

SMILES	IC90 [µM]	other results
COCCNc1ccc2ncc(-c3ccc(Cl)cc3)n2n1	5.92	IC50 (HEPG2TOX_HILL_SLOPE 7.9, HEPG2TOX_R_SQUARED 0.252, PBLUC_HILL_SLOPE 6.86, PBLUC_R_SQUARED 0.283, read-out: LUCIFERASE INFECTION ASSAY - IC50): 4.3 µM
Cc1ccc(NC2=CC(=O)CC(c3ccco3)C2)c(N)c1 (centres undefined)	6.68	IC50 (HEPG2TOX_HILL_SLOPE 7.93, HEPG2TOX_R_SQUARED 0.791, PBLUC_HILL_SLOPE 1.82, PBLUC_R_SQUARED 0.701, read-out: LUCIFERASE INFECTION ASSAY - IC50): 2 µM
Oc1ccc(-c2cn3c(-c4ccc(Cl)cc4)cnc3cn2)cc1	5.63	IC50 (HEPG2TOX_HILL_SLOPE 7.91, HEPG2TOX_R_SQUARED 0.667, PBLUC_HILL_SLOPE 4.16, PBLUC_R_SQUARED 0.739, read-out: LUCIFERASE INFECTION ASSAY - IC50): 3.32 µM
O=C(CCN1CCN(c2ccccc2)CC1)NNC(=O)c1ccc(C(F)(F)F)cn1	7.86	IC50 (HEPG2TOX_HILL_SLOPE 7.92, HEPG2TOX_R_SQUARED 0.92, PBLUC_HILL_SLOPE 7.4, PBLUC_R_SQUARED 0.199, read-out: LUCIFERASE INFECTION ASSAY - IC50): 5.84 µM
CCCCCc1nnc(NC(=O)c2nccnc2N)s1	4.56	IC50 (HEPG2TOX_HILL_SLOPE 7.97, HEPG2TOX_R_SQUARED 0.296, PBLUC_HILL_SLOPE 11.4, PBLUC_R_SQUARED 0.31, read-out: LUCIFERASE INFECTION ASSAY - IC50): 3.76 µM
CN(C)CCNC(=O)c1ccc(-c2cn3c(-c4cccs4)cnc3cn2)cc1	> 8.43	IC50 (HEPG2TOX_HILL_SLOPE 7.97, HEPG2TOX_R_SQUARED 0.151, read-out: LUCIFERASE INFECTION ASSAY - IC50): > 8.43 µM
COc1ccc2c(C)cc3nnc(SCC(=O)NCC45CC6CC(CC(C6)C4)C5)n3c2c1	> 10	IC50 (HEPG2TOX_HILL_SLOPE 7.95, HEPG2TOX_R_SQUARED 0.512, PBLUC_HILL_SLOPE 13.7, PBLUC_R_SQUARED 0.353, read-out: LUCIFERASE INFECTION ASSAY - IC50): 8.94 µM
Cc1ccc2nc(NC(=O)C(C)Oc3ccccc3)c(C(=O)NC3CCCCC3)n2c1 (centres undefined)	> 7.85	IC50 (HEPG2TOX_HILL_SLOPE 7.98, HEPG2TOX_R_SQUARED 0.0955, PBLUC_HILL_SLOPE 9.58, PBLUC_R_SQUARED 0.283, read-out: LUCIFERASE INFECTION ASSAY - IC50): 6.26 µM
Cc1cc(-c2ccccc2)nc(SCc2ccc(C#N)cc2)n1	5.95	IC50 (HEPG2TOX_HILL_SLOPE 7.96, HEPG2TOX_R_SQUARED 0.286, PBLUC_HILL_SLOPE 151, PBLUC_R_SQUARED 0.106, read-out: LUCIFERASE INFECTION ASSAY - IC50): 5.87 µM
CC(C)(C)CC(=O)Nc1ccc(-c2nc3ccccc3[nH]2)cc1	6	IC50 (HEPG2TOX_HILL_SLOPE 7.93, HEPG2TOX_R_SQUARED 0.604, PBLUC_HILL_SLOPE 0.372, PBLUC_R_SQUARED 0.913, read-out: LUCIFERASE INFECTION ASSAY - IC50): 0.0164 µM
CC(C)c1ccccc1N(C(=O)C1CC(=O)N(CCc2ccccc2)C1)c1nc2ccccc2s1 (centres undefined)	> 10	IC50 (HEPG2TOX_HILL_SLOPE 7.95, HEPG2TOX_R_SQUARED 0.294, read-out: LUCIFERASE INFECTION ASSAY - IC50): > 10 µM
COc1ccc(Nc2nccc3nc(-c4ccc(C)cc4)[nH]c23)cc1	> 10	IC50 (HEPG2TOX_HILL_SLOPE 7.88, HEPG2TOX_R_SQUARED 0.839, PBLUC_HILL_SLOPE 3.67, PBLUC_R_SQUARED 0.381, read-out: LUCIFERASE INFECTION ASSAY - IC50): 7.4 µM
O=C(NC(=O)c1cc(Br)cc(Br)c1)Nc1cc(C(F)(F)F)cc(C(F)(F)F)c1	5.3	IC50 (HEPG2TOX_HILL_SLOPE 7.89, HEPG2TOX_R_SQUARED 0.4, PBLUC_HILL_SLOPE 3.95, PBLUC_R_SQUARED 0.259, read-out: LUCIFERASE INFECTION ASSAY - IC50): 3.04 µM
O=C(Nc1nonc1-c1cccs1)c1ccc(Br)cc1	6.36	IC50 (HEPG2TOX_HILL_SLOPE 7.96, HEPG2TOX_R_SQUARED 0.814, PBLUC_HILL_SLOPE 7.42, PBLUC_R_SQUARED 0.0569, read-out: LUCIFERASE INFECTION ASSAY - IC50): 4.73 µM
COc1ccccc1N(C)S(=O)(=O)c1ccc(C(=O)NNC(=O)c2nn(C)c(=O)c3ccccc23)cc1	> 10	IC50 (HEPG2TOX_HILL_SLOPE 7.89, HEPG2TOX_R_SQUARED 0.384, read-out: LUCIFERASE INFECTION ASSAY - IC50): > 10 µM
COc1ccc(NCC2(c3ccnc(-c4ccccc4Cl)c3)CC2)cc1	8.59	IC50 (HEPG2TOX_HILL_SLOPE 7.95, HEPG2TOX_R_SQUARED 0.722, PBLUC_HILL_SLOPE 6.14, PBLUC_R_SQUARED 0.58, read-out: LUCIFERASE INFECTION ASSAY - IC50): 6.01 µM

SMILES	IC90 [µM]	other results
COc1cc(N2C(=O)C=CC2=O)cc(OC)c1OC	> 12.5	IC50 (HEPG2TOX_HILL_SLOPE 7.92, HEPG2TOX_R_SQUARED 0.512, PBLUC_HILL_SLOPE 9.52, PBLUC_R_SQUARED 0.0663, read-out: LUCIFERASE INFECTION ASSAY - IC50): > 12.5 µM
Clc1ccc(-c2cnc3cnc(-c4ccc(NCCN5CCOCC5)nc4)cn23)cc1	7.4	IC50 (HEPG2TOX_HILL_SLOPE 7.91, HEPG2TOX_R_SQUARED 0.577, PBLUC_HILL_SLOPE 49, PBLUC_R_SQUARED 0.381, read-out: LUCIFERASE INFECTION ASSAY - IC50): 7.08 µM
O=C(N/N=C1\CCCCc2ccccc21)c1cc2ccccc2cc1O	> 10	IC50 (HEPG2TOX_HILL_SLOPE 7.95, HEPG2TOX_R_SQUARED 0.651, read-out: LUCIFERASE INFECTION ASSAY - IC50): > 10 µM
COc1ccc(OCC[N+](C)(Cc2csc(Nc3ccccc3)n2)Cc2csc(Nc3ccccc3)n2)cc1	7.93	IC50 (HEPG2TOX_HILL_SLOPE 7.97, HEPG2TOX_R_SQUARED 0.988, PBLUC_HILL_SLOPE 3.3, PBLUC_R_SQUARED 0.694, read-out: LUCIFERASE INFECTION ASSAY - IC50): 4.08 µM
Cn1c2c(cc(-c3ccccc3)c1=O)CN(Cc1cnn(-c3ccc(F)cc3)c1)CC2	> 7.96	IC50 (HEPG2TOX_HILL_SLOPE 7.96, HEPG2TOX_R_SQUARED 0.425, PBLUC_HILL_SLOPE 14.6, PBLUC_R_SQUARED 0.0729, read-out: LUCIFERASE INFECTION ASSAY - IC50): 7.11 µM
CCOc1cccc(-c2cn3c(-c4cnn(C)c4)cnc3cn2)c1	> 10.3	IC50 (HEPG2TOX_HILL_SLOPE 7.89, HEPG2TOX_R_SQUARED 0.0776, PBLUC_HILL_SLOPE 1.98, PBLUC_R_SQUARED 0.483, read-out: LUCIFERASE INFECTION ASSAY - IC50): 3.78 µM
CN(C)c1ccc(-c2cnc3cnc(-c4ccc(N)nc4)cn23)cc1	8.82	IC50 (HEPG2TOX_HILL_SLOPE 7.95, HEPG2TOX_R_SQUARED 0.49, PBLUC_HILL_SLOPE 26.9, PBLUC_R_SQUARED 0.584, read-out: LUCIFERASE INFECTION ASSAY - IC50): 8.12 µM
FC(F)(F)Oc1cccc(-c2nc3ccnc(Nc4ccccc4)c3[nH]2)c1	> 10	IC50 (HEPG2TOX_HILL_SLOPE 7.94, HEPG2TOX_R_SQUARED 0.491, PBLUC_HILL_SLOPE 12.6, PBLUC_R_SQUARED 0.533, read-out: LUCIFERASE INFECTION ASSAY - IC50): 8.84 µM
O=[N+]([O-])c1ccc(N2CCc3ccccc32)cc1	> 13.7	IC50 (HEPG2TOX_HILL_SLOPE 7.98, HEPG2TOX_R_SQUARED 0.901, PBLUC_HILL_SLOPE 21.8, PBLUC_R_SQUARED 0.45, read-out: LUCIFERASE INFECTION ASSAY - IC50): 13.3 µM
CC(OC(=O)c1cc2ccccc2[nH]1)C(=O)Nc1cccc(C#N)c1 (centres undefined)	> 10	IC50 (HEPG2TOX_HILL_SLOPE 7.96, HEPG2TOX_R_SQUARED 0.0358, PBLUC_HILL_SLOPE 3.96, PBLUC_R_SQUARED 0.0932, read-out: LUCIFERASE INFECTION ASSAY - IC50): 8.49 µM
COc1ccc(/C=C2\Oc3cc(O)cc(C)c3C2=O)c(OC)c1	> 10.6	IC50 (HEPG2TOX_HILL_SLOPE 7.92, HEPG2TOX_R_SQUARED 0.287, PBLUC_HILL_SLOPE 2.15, PBLUC_R_SQUARED 0.542, read-out: LUCIFERASE INFECTION ASSAY - IC50): 6.5 µM
N=C1N/C(=N/NC(=O)c2ccc(CN3C(=O)c4cccc5cccc3c45)cc2)c2ccccc21	> 10	IC50 (HEPG2TOX_HILL_SLOPE 8, HEPG2TOX_R_SQUARED 0.371, PBLUC_HILL_SLOPE 2.14, PBLUC_R_SQUARED 0.479, read-out: LUCIFERASE INFECTION ASSAY - IC50): 4.48 µM
N#Cc1cc(C(=O)c2ccc([N+](=O)[O-])cc2)c2nc3ccccc3n2c1N	> 10	IC50 (HEPG2TOX_HILL_SLOPE 7.9, HEPG2TOX_R_SQUARED 0.276, PBLUC_HILL_SLOPE 1.76, PBLUC_R_SQUARED 0.097, read-out: LUCIFERASE INFECTION ASSAY - IC50): 9.24 µM
CCCCc1nc2ccccc2n1CC(=O)Nc1cc(S(=O)(=O)N(C)C)ccc1OC	> 10	IC50 (HEPG2TOX_HILL_SLOPE 7.99, HEPG2TOX_R_SQUARED 0.0779, PBLUC_HILL_SLOPE 2.22, PBLUC_R_SQUARED 0.125, read-out: LUCIFERASE INFECTION ASSAY - IC50): > 10 µM
CC(C)c1noc2ncc(C(=O)Nc3ccc(Cl)c(C(F)(F)F)c3)cc12	9.79	IC50 (HEPG2TOX_HILL_SLOPE 7.95, HEPG2TOX_R_SQUARED 0.873, PBLUC_HILL_SLOPE 16.7, PBLUC_R_SQUARED 0.65, read-out: LUCIFERASE INFECTION ASSAY - IC50): 8.58 µM
CCOc1ccccc1C(=O)N[C@H](C(=O)Nc1sc2c(c1C(N)=O)CCC2)C(C)C	9.93	IC50 (HEPG2TOX_HILL_SLOPE 7.99, HEPG2TOX_R_SQUARED 0.813, PBLUC_HILL_SLOPE 17.7, PBLUC_R_SQUARED 0.214, read-out: LUCIFERASE INFECTION ASSAY - IC50): 8.77 µM
